Measured values: US20230104315A1, “METHOD OF IDENTIFYING EXTRACHROMOSOMAL DNA SIGNATURES” (Boundless Bio, Inc., priority 2020, published 2023)

Tested on: SNU16 cells
Assay: ecDNA copy number from exome data of SNU16 cells under sequential infigratinib and erlotinib treatment
Assay type: cell-based, human
Settings: FIG. 19; for MYC and PDHX ecDNA copy numbers: 1 μM infigratinib up to 12 weeks, followed by 5 μM erlotinib up to four weeks; for EGFR ecDNA copy number: 1 μM infigratinib, followed by 5 μM erlotinib
Description: Exomes were prepared using Human Core Exome kit (Twist Bioscience) and sequenced on an Illumina platform with 2×150 paired-end read configuration.
Sequencing data was processed according to genome analysis tool kit (GATK) recommended practices (see gatk.groadinstitute.org/hc/en-us/articles/30035894731-Somatic-short-variant-discovery-SVNs-Indels-). Briefly, raw reads were aligned to the human genome (version GRCh37) using Burrows-Wheeler aligner (BWA) […] exact match (MEM). Small somatic variations were then extracted using Mutect2 (GATK v4.1.9.0) and filtered using FilterMutectCalls.
A culture of SNU16 cells was subjected to a sequence of treatments, starting with infigratinib and followed with erlotinib. Exome data was obtained from these cells at various time points during this experiment: before treatment with infigratinib, two weeks into treatment with 1 μM infigratinib, after 12 weeks of treatment with 1 μM infigratinib, before treatment with erlotinib, two weeks into treatment with 5 μM erlotinib, and four weeks into treatment with 5 μM erlotinib. VCF files produced by GATK Mutect2 were used to calculate rates of substitutions, insertions, and deletions in one million nucleotide-long genomic windows over the entire autosomal genome. Mean coverage depth was estimated by averaging depth for all mutations in that particular genomic window as reported in the VCF file.

| Compound | MYC and PDHX ecDNA copy numbers | EGFR ecDNA copy number | FGFR2 ecDNA copy number (during treatment with 1 μM infigratinib) |
| --- | --- | --- | --- |
| C#Cc1cccc(Nc2ncnc3cc(OCCOC)c(OCCOC)cc23)c1 [erlotinib] | mostly stable | went back down | – |
| CCN1CCN(c2ccc(Nc3cc(N(C)C(=O)Nc4c(Cl)c(OC)cc(OC)c4Cl)ncn3)cc2)CC1 [infigratinib] | mostly stable | dramatically increased | moderately decreased |
